Broadly, the half-life is how long it takes for the measured level to halve. Lower therefore signals fast loss.

The values that follow come from US5001115A, “Prodrugs of biologically active hydroxyaromatic compounds” (University of Florida, priority 1989, dated 1991).

A short description of this data set: Hydrolysis in pH=7.1 buffer at room temperature. The class given is physicochemical. As for the experimental part:
The compounds: [drawing 4] were prepared similarly to the above product and their hydrolytic properties under similar conditions were evaluated.

Regarding `O=C1CCC(=O)N1COc1ccc([N+](=O)[O-])cc1` [(b)], the half-life (similar conditions (pH=7.1 buffer, room temperature)) was ~360 min.

Turning to `O=C(NCOc1ccc([N+](=O)[O-])cc1)c1ccccc1` [Compound (a)], the “hydrolytic stability (in words)” value (pH=7.1, similar conditions) is reported as “completely stable”.

`O=C1c2ccccc2S(=O)(=O)N1COc1ccc([N+](=O)[O-])cc1` [Example 1, 4-Nitro-1-[1',1',3'-trioxo-(2'H)-1',2'-benzisothiazol-2'-yl]methoxybenzene]: the half-life (pH=7.1 buffer, room temperature) is ~17 min.
